25 compounds from patent publication US20230114241A1, “METHODS OF TREATING EPILEPSY USING THE SAME” (Trevena, Inc., priority 2019, published 2023) can be followed below.

The target in assay [1] is T1, human sphingosine-1-phosphate receptor 1 (S1P1) (Homo sapiens, UniProt P21453). Nature of the assay: Inhibition of cAMP production (HTRF cAMP HiRange), S1P1 CHO-K1 cells. The format is cell-based. As to conditions: for Emax: CHO-K1, efficacy normalized to maximum efficacy of fingolimod, read-out: hS1P1 CAMP SPAN; for EC50: read-out: hS1P1 CAMP pEC50 (converted). An outline of the steps: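 CHO-K1 cells co-expressing human S1P1 (C-terminal ProLink tag) and EA-β-arrestin2, plated overnight; after 30 min compound incubation at 37 °C, intracellular cAMP measured by HTRF TR-FRET following 1 h at room temperature. Values normalized to fingolimod.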
In general terms: Changes in cAMP serve as a functional read-out for many G protein-coupled receptors.
Target sequence in this assay (P21453 whole entry): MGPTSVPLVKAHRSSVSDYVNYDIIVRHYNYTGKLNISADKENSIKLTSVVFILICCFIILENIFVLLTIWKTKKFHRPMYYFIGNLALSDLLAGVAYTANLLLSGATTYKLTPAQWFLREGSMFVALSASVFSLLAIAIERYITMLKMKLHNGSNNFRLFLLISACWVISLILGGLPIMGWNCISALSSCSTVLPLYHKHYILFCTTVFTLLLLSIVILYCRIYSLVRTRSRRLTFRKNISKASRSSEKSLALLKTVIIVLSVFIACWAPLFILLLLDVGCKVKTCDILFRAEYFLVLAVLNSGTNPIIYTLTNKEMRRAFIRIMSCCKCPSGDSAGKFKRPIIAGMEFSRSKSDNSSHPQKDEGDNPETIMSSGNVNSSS

Assay [2] deals with T1, human sphingosine-1-phosphate receptor 1 (S1P1). Put plainly: β-Arrestin2 recruitment assay (PathHunter), S1P1 CHO-K1 cells. Format: cell-based. Particulars: for Emax: efficacy normalized to maximum efficacy of fingolimod, read-out: hS1P1 B-arrestin2 SPAN; for EC50: β-arrestin2 recruitment, read-out: hS1P1 B-arrestin2 pEC50 (converted). An outline of the steps: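 CHO-K1 cells co-expressing EA-β-arrestin2 and ProLink-tagged human S1P1 plated overnight, then stimulated 60 min at 37 °C. Enzyme-fragment complementation (β-galactosidase) detected after 1 h at room temperature by luminescence; values normalized to fingolimod.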
Target sequence in this assay (P21453 whole entry): as above
Target sequence in this assay (P32121 whole entry partner): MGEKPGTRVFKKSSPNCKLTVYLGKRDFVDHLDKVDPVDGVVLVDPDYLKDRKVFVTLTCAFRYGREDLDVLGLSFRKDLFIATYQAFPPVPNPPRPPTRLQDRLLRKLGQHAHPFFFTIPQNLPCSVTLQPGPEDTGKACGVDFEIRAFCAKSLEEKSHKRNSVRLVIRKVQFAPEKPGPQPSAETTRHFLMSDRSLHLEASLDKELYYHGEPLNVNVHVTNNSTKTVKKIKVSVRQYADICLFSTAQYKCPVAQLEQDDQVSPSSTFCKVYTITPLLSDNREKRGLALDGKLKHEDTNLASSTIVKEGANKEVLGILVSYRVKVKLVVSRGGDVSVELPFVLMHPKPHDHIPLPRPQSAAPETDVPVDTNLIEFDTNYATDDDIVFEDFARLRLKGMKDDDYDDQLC
Background: Arrestin recruitment assays detect the binding of arrestin to an activated receptor.

[3] abbreviates: inhibition of cAMP production, S1P1.
Setting [4] is: inhibition of cAMP production, potency.
Where [5] appears, read: CHO-K1, β-arrestin2 recruitment.

As to `CC(C)Nc1ccc(-c2nnc(-c3ccc4[nH]c(=O)oc4c3)o2)cc1C#N` [Compound 484, 5-[5-(2-oxo-2,3-dihydro-1,3-benzoxazol-6-yl)-1,3,4-oxadiazol-2-yl]-2-[(propan-2-yl)amino]benzonitrile], the Emax in assay [1] and in assay [2] (CHO-K1) was greater than 75% in each case. The EC50 is less than 0.316 µM in assay [1] (setting [3]) and less than 10 µM in assay [2] (S1P1).
With `CC(C)Cn1nnc2cc(-c3nc4cccc(Br)c4o3)ccc21` [Compound 454, 7-bromo-2-(1-isobutyl-1H-benzo[d][1,2,3]triazol-5-yl)benzo[d]oxazole], the Emax in assay [1] and in assay [2] (CHO-K1) was greater than 75% each time. For the same compound, the EC50 in assay [1] (setting [3]) is less than 0.316 µM.
On to `N#Cc1cc(-c2nnc(-c3ccc4[nH]c(=O)oc4c3)o2)ccc1NCC1CC1` [Compound 486, 2-[(cyclopropyl-methyl)amino]-5-[5-(2-oxo-2,3-dihydro-1,3-benzoxazol-6-yl)-1,3,4-oxadiazol-2-yl]benzonitrile], for which the Emax is less than 75% in assay [1] and greater than 75% in assay [2] (CHO-K1). In addition, the figures for the EC50 in assay [1] (setting [3]) and in assay [2] (S1P1) were less than 0.316 µM and greater than 10 µM, respectively.
Turning to `COc1ccccc1-c1noc(-c2ccc3c(cnn3C(C)C)c2)n1` [Compound 370, 5-(1-isopropyl-1H-indazol-5-yl)-3-(2-methoxyphenyl)-1,2,4-oxadiazole], the Emax in assay [1] (inhibition of cAMP production) and in assay [2] (setting [5]) was greater than 75% in each case. Moreover, the EC50 in assay [1] (setting [4]) was less than 0.316 µM; in assay [2] (potency), less than 10 µM.
For `CCC1(CC)CC(=O)c2cc(-c3nc(-c4cccnc4F)no3)ccc2O1` [Compound 547, 2,2-diethyl-6-(3-(2-fluoropyridin-3-yl)-1,2,4-oxadiazol-5-yl)chroman-4-one], the Emax in assay [1] and in assay [2] (CHO-K1) was greater than 75% in each case. Also, the EC50 is less than 0.316 µM in assay [1] (setting [3]) and less than 10 µM in assay [2] (S1P1).
`CCC1(CC)CC(=O)c2cc(-c3ncc(-c4ccccn4)cn3)ccc2O1` [Compound 530, 2,2-diethyl-6-(5-(pyridin-2-yl)pyrimidin-2-yl)chroman-4-one]: the Emax in assay [1] and in assay [2] (CHO-K1) was greater than 75% throughout. The results for the EC50 in assay [1] (setting [3]) and in assay [2] (S1P1) were greater than 0.316 µM and greater than 10 µM, respectively.
Consider `CCC1(CC)CC(=O)c2cc(-c3nc(-c4ccc(F)nc4)no3)ccc2O1` [Compound 546, 2,2-diethyl-6-(3-(6-fluoropyridin-3-yl)-1,2,4-oxadiazol-5-yl)chroman-4-one], for which the Emax in assay [1] and in assay [2] (CHO-K1) was less than 75% throughout. Besides, the results for the EC50 in assay [1] (setting [3]) and in assay [2] (S1P1) were greater than 0.316 µM and greater than 10 µM, respectively.
Take `Cc1cccc2oc(-c3ccc4c(c3)nnn4CC(C)C)nc12` [Compound 447, 2-(1-isobutyl-1H-benzo[d][1,2,3]triazol-5-yl)-4-methyl-benzo[d]oxazole]: the Emax is greater than 75% in assay [1] and less than 75% in assay [2] (CHO-K1). Moreover, the values for the EC50 in assay [1] (setting [3]) and in assay [2] (S1P1) were less than 0.316 µM and less than 10 µM, respectively.
For `CCC1(CC)CC(=O)c2cc(-c3nc(-c4cnccn4)no3)ccc2O1` [Compound 617, 2,2-diethyl-6-(3-(pyrazin-2-yl)-1,2,4-oxadiazol-5-yl)chroman-4-one], in that order: less than 75%, greater than 75%, greater than 0.316 µM and greater than 10 µM.
For `CC(C)Nc1ccc(-c2nnc(-c3ccc4c(c3)ncn4CCO)o2)cc1C#N` [Compound 574, 5-{5-[1-(2-hydroxy-ethyl)-1H-1,3-benzodiazol-5-yl]-1,3,4-oxadiazol-2-yl}-2-[(propan-2-yl)amino]benzonitrile], in that order: greater than 75%, greater than 75%, greater than 0.316 µM and greater than 10 µM.
Take `Cc1cncc(-c2nc(-c3ccc4c(c3)nnn4C(C)C)no2)c1` [Compound 159, 3-(1-isopropyl-1H-benzo[d][1,2,3]triazol-5-yl)-5-(5-methylpyridin-3-yl)-1,2,4-oxadiazole]: the Emax in assay [1] (inhibition of cAMP production) and in assay [2] (setting [5]) was less than 75% in each case. For the same compound, the EC50 in assay [1] (setting [4]) is greater than 0.316 µM; in assay [2] (potency) it was greater than 10 µM.
In the case of `Cc1ccc(-c2noc(-c3ccc4c(c3)nnn4C3CCCC3)n2)s1` [Compound 192, 1-cyclopentyl-5-[3-(5-methylthiophen-2-yl)-1,2,4-oxadiazol-5-yl]-1H-1,2,3-benzotriazole], the Emax in assay [1] (inhibition of cAMP production) and in assay [2] (setting [5]) was less than 75% in each case. Besides, the EC50 is greater than 0.316 µM in assay [1] (setting [4]) and greater than 10 µM in assay [2] (potency).
Take `CC(C)C(c1ccccc1)c1noc(-c2ccc3c(c2)nnn3C(C)C)n1` (centres unmarked) [Compound 56, 5-[3-(2-methyl-1-phenyl-propyl)-1,2,4-oxadiazol-5-yl]-1-(propan-2-yl)-1H-1,2,3-benzotriazole]: the Emax in assay [1] (inhibition of cAMP production) and in assay [2] (setting [5]) was less than 75% each time. The EC50 is greater than 0.316 µM in assay [1] (setting [4]) and greater than 10 µM in assay [2] (potency).
Turning to `CC(C)n1nnc2cc(-c3cc(-c4ccccc4)n(C)c3)ccc21` [Compound 544, 5-(1-methyl-5-phenyl-1H-pyrrol-3-yl)-1-(propan-2-yl)-1H-1,2,3-benzotriazole], the Emax in assay [1] and in assay [2] (CHO-K1) was less than 75% throughout. For the same compound, the EC50 in assay [1] (setting [3]) is greater than 0.316 µM; in assay [2] (S1P1) it was less than 10 µM.
As to `CCC1(CC)CC(=O)c2cc(-c3ncc(-c4cccnc4)cn3)ccc2O1` [Compound 509, 2,2-diethyl-6-(5-(pyridin-3-yl)pyrimidin-2-yl)chroman-4-one], the Emax in assay [1] is less than 75%; in assay [2] (CHO-K1), greater than 75%. The figures for the EC50 in assay [1] (setting [3]) and in assay [2] (S1P1) were greater than 0.316 µM and greater than 10 µM, respectively.
Take `CC(C)n1nnc2cc(-c3nc(-c4ccccc4F)co3)ccc21` [Compound 21, 5-[4-(2-fluorophenyl)-1,3-oxazol-2-yl]-1-(propan-2-yl)-1H-1,2,3-benzotriazole]: the Emax in assay [1] (inhibition of cAMP production) and in assay [2] (setting [5]) was greater than 75% in each case. Moreover, the EC50 in assay [1] (setting [4]) is greater than 0.316 µM; in assay [2] (potency), greater than 10 µM.
As for `CCC1(CC)CC(=O)c2cc(-c3noc(-c4ccc(NC(C)C)c(C#N)c4)n3)ccc2O1` [Compound 443, 5-(3-(2,2-diethyl-4-oxochroman-6-y)-1,2,4-oxadiazol-5-yl)-2-(isopropyl-amino)benzonitrile], the Emax in assay [1] was greater than 75%; in assay [2] (CHO-K1) it was less than 75%. In addition, the EC50 was less than 0.316 µM in assay [1] (setting [3]) and less than 10 µM in assay [2] (S1P1).
In the case of `C=CCn1nnc2cc(-c3nc(-c4ccccc4)no3)ccc21` [Compound 270, 5-(3-phenyl-1,2,4-oxadiazol-5-yl)-1-(prop-2-en-1-yl)-1H-1,2,3-benzotriazole], the Emax in assay [1] (inhibition of cAMP production) and in assay [2] (setting [5]) was less than 75% throughout. For the same compound, the EC50 in assay [1] (setting [4]) is greater than 0.316 µM; in assay [2] (potency) it was greater than 10 µM.
Consider `COc1cccc(-c2nc(-c3ccc4c(ccn4C(C)C)c3)no2)c1` [Compound 392, 3-(1-isopropyl-1H-indol-5-yl)-5-(3-methoxyphenyl)-1,2,4-oxadiazole], for which the Emax in assay [1] and in assay [2] (CHO-K1) was less than 75% each time. Besides, the EC50 in assay [1] (setting [3]) is greater than 0.316 µM; in assay [2] (S1P1), greater than 10 µM.
Regarding `CC(C)n1ccc2cc(-c3nc(-c4ccccc4F)cs3)cnc21` [Compound 402, 4-(2-fluorophenyl)-2-(1-isopropyl-1H-pyrrolo[2,3-b]pyridin-5-yl)thiazole], the Emax in assay [1] and in assay [2] (CHO-K1) was less than 75% throughout. For the same compound, the EC50 is less than 0.316 µM in assay [1] (setting [3]) and greater than 10 µM in assay [2] (S1P1).
On to `FC(F)(F)c1cccc(-c2noc(-c3ccc4c(c3)nnn4C3CCCC3)n2)c1` [Compound 118, 1-cyclopentyl-5-{3-[3-(trifluoromethyl)phenyl]-1,2,4-oxadiazol-5-yl}-1H-1,2,3-benzotriazole], for which the Emax in assay [1] (inhibition of cAMP production) and in assay [2] (setting [5]) was less than 75% each time. For the same compound, the EC50 in assay [1] (setting [4]) is greater than 0.316 µM.
On to `CCC1(CC)CC(=O)c2cc(-c3nc(-c4cncc(S(N)(=O)=O)c4)no3)ccc2O1` [Compound 603, 5-(5-(2,2-diethyl-4-oxochroman-6-yl)-1,2,4-oxadiazol-3-yl)pyridine-3-sulfonamide], for which the Emax in assay [1] and in assay [2] (CHO-K1) was greater than 75% in each case. Further, the EC50 in assay [1] (setting [3]) is less than 0.316 µM; in assay [2] (S1P1) it was less than 10 µM.
With `CSc1ccccc1-c1nc(-c2ccc3c(c2)nnn3C2CCCC2)no1` [Compound 16, 3-(1-cyclopentyl-1H-benzo[d][1,2,3]triazol-5-yl)-5-(2-(methylthio)phenyl)-1,2,4-oxadiazole], the results for the Emax in assay [1] (inhibition of cAMP production) and in assay [2] (setting [5]) were less than 75% and greater than 75%, respectively. The EC50 in assay [1] (setting [4]) was greater than 0.316 µM; in assay [2] (potency), less than 10 µM.
Regarding `Cc1ccccc1-c1noc(-c2cnc3c(c2)nnn3C(C)C)n1` [Compound 382, 3-(2-methylphenyl)-5-[3-(propan-2-yl)-3H-[1,2,3]triazolo[4,5-b]pyridin-6-yl]-1,2,4-oxadiazole], the Emax in assay [1] and in assay [2] (CHO-K1) was greater than 75% in each case. Also, the EC50 was less than 0.316 µM in assay [1] (setting [3]) and less than 10 µM in assay [2] (S1P1).
Turning to `COc1ccccc1-c1c[nH]c(-c2ccc3c(c2)nnn3C(C)C)c1` [Compound 566, 5-[4-(2-methoxyphenyl)-1H-pyrrol-2-yl]-1-(propan-2-yl)-1H-1,2,3-benzotriazole], the Emax in assay [1] and in assay [2] (CHO-K1) was less than 75% throughout. The EC50 was greater than 0.316 µM in assay [1] (setting [3]) and greater than 10 µM in assay [2] (S1P1).
